From the NIST ThermoML archive (doi:10.1016/j.jct.2006.01.015)

Assays:
[1] = xn = mol fraction of the nth substance listed; settings: 101 kPa, Liquid
[2] = 101 kPa, Liquid

CC#N [acetonitrile] + CC(=O)N(C)C
[1], x1 = 1
Settings | mass density [kg/m3]
293.15 K | 782.1
298.15 K | 776.8
303.15 K | 771.5
308.15 K | 766.3
313.15 K | 761
318.15 K | 755.7

CC#N [acetonitrile] + NC=O
[1], x1 = 1
Settings | mass density [kg/m3]
293.15 K | 782.1
298.15 K | 776.8
303.15 K | 771.5
308.15 K | 766.3
313.15 K | 761
318.15 K | 755.7

CC#N [acetonitrile]
[2]
Settings | mass density [kg/m3]
293.15 K | 782.1
298.15 K | 776.8
303.15 K | 771.5
308.15 K | 766.3
313.15 K | 761
318.15 K | 755.7

CN(C)C=O [dimethylformamide] + CC#N
[1], x2 = 0
Settings | mass density [kg/m3]
293.15 K | 949.1
298.15 K | 944.6
303.15 K | 940.1
308.15 K | 935.7
313.15 K | 931.2
318.15 K | 926.7

CC#N [acetonitrile] + CNC(C)=O
[1], x1 = 1
Settings | mass density [kg/m3]
293.15 K | 782.1
298.15 K | 776.8
303.15 K | 771.5
308.15 K | 766.3
313.15 K | 761
318.15 K | 755.7

CNC(C)=O [N-methylacetamide]
[2]
Settings | mass density [kg/m3]
293.15 K | 958.4
298.15 K | 954.2
303.15 K | 950.1
308.15 K | 945.9
313.15 K | 941.7
318.15 K | 937.6

CN(C)C=O [dimethylformamide]
[2]
Settings | mass density [kg/m3]
293.15 K | 949.1
298.15 K | 944.6
303.15 K | 940.1
308.15 K | 935.7
313.15 K | 931.2
318.15 K | 926.7

CC(=O)N(C)C [N,N-dimethylethanamide]
[2]
Settings | mass density [kg/m3]
293.15 K | 941
298.15 K | 936.5
303.15 K | 932
308.15 K | 927.6
313.15 K | 923.1
318.15 K | 918.6

NC=O [formamide]
[2]
Settings | mass density [kg/m3]
293.15 K | 1133
298.15 K | 1129
303.15 K | 1125
308.15 K | 1121
313.15 K | 1117
318.15 K | 1113
